Test results as given in patent US11034672B1, “Tyrosine kinase inhibitor compositions, methods of making and methods of use” (Black Diamond Therapeutics, Inc., priority 2018, dated 2021).

Legend:
Type in all cases: cell-based
HER2 S310F [1] = target: T1, HER2 S310F (Homo sapiens, UniProt P04626, S310F); assay: Activity for inhibiting HER2 (Table B), HER2 S310F; settings: read-out: HER2 S310F, potency code (IC50)
T1 construct: expressed in transfected cells; host or cells: BaF3 (murine pro-B)
Description: (§1) EC50 values were determined with the same application.

HER2 S310F [2] = target: T1, HER2 S310F; assay: BaF3 cell proliferation assay, HER2 S310F (Table B); settings: potency code, 3 days, CellTiterGlo, read-out: HER2 S310F (Activity for Inhibiting HER2)
EGFR WT [3] = target: T2, EGFR WT (Homo sapiens, UniProt P00533); assay: Activity for inhibiting EGFR (Table A), EGFR WT; settings: read-out: EGFR WT, potency code (IC50)
T2 sequence (P00533 25-1210 N540K): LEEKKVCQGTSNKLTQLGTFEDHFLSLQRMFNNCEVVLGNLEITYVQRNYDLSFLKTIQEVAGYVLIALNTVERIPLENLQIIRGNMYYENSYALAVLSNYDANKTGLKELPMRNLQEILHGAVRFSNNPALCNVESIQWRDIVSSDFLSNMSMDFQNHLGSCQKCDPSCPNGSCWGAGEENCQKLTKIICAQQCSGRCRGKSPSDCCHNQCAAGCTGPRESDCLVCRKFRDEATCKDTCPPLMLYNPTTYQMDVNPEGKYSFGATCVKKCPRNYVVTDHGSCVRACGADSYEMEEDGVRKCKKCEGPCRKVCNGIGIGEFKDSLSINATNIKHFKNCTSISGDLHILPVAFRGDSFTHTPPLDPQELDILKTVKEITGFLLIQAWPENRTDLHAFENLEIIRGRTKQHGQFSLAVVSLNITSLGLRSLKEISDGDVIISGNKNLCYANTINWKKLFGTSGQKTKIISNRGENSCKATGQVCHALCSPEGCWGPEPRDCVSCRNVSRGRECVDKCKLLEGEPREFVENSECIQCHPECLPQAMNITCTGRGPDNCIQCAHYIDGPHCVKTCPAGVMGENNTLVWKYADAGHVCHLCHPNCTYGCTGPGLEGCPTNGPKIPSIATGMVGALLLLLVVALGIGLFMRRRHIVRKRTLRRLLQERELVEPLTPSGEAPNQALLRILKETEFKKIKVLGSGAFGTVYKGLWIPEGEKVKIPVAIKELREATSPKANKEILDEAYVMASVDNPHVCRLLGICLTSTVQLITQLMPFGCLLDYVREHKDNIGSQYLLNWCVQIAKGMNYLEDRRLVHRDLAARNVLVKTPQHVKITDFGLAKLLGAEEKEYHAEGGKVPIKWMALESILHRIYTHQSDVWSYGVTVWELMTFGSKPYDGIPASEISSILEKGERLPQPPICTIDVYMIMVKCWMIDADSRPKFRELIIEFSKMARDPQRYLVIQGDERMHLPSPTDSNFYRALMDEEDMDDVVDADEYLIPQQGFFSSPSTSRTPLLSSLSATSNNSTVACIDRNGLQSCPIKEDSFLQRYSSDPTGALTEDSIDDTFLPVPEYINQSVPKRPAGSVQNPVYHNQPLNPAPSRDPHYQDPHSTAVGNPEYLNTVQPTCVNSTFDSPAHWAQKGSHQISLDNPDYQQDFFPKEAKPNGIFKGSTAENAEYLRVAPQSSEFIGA

HER2 YVMA [4] = target: T3, HER2 YVMA (Homo sapiens, UniProt P04626, INS775YVMA); assay: Activity for inhibiting HER2 (Table B), HER2 YVMA; settings: read-out: HER2 YVMA, potency code (IC50)
T3 construct: expressed in transfected cells; host or cells: BaF3 (murine pro-B)
T3 sequence (P04626 with tags, fused parts or gaps INS775YVMA): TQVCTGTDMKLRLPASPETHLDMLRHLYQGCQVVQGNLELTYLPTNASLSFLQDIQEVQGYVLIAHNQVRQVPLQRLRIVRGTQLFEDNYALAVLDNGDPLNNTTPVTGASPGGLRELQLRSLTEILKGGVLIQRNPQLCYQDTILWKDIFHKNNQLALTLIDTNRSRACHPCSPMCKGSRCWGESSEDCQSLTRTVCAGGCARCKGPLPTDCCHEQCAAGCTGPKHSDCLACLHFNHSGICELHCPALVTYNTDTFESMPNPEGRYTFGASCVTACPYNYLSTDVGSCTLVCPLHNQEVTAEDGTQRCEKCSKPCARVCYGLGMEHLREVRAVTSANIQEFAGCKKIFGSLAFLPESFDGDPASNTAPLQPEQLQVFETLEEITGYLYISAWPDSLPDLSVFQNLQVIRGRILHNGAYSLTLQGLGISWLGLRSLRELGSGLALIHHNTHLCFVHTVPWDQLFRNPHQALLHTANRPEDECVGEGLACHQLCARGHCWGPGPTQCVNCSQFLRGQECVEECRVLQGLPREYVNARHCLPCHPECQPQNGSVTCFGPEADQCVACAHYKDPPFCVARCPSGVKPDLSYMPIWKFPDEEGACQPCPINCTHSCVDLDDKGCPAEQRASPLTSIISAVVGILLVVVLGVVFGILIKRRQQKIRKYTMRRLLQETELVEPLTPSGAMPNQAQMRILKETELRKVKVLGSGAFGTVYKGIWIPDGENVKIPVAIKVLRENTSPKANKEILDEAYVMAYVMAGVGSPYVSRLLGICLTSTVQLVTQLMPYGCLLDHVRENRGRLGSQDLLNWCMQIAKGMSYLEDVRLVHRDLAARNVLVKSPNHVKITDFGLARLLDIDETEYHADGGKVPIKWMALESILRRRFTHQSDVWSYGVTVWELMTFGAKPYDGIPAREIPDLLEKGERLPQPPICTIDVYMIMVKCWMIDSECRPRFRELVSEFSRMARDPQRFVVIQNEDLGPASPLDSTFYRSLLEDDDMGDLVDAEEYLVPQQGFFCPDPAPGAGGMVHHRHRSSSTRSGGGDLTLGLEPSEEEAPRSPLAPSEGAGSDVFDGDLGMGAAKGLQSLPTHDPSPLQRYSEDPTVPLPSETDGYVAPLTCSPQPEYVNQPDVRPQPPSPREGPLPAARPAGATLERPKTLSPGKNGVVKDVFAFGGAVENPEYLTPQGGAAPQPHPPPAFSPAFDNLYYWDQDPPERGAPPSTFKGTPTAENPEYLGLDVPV
Description: as §1

EGFR V3 [5] = target: T4, EGFR V3 (Homo sapiens, UniProt P00533, DELINS30-297G); assay: BaF3 cell proliferation assay, EGFR V3 (Table A); settings: potency code, 3 days, CellTiterGlo, read-out: EGFR V3 (Activity for Inhibiting EGFR)
T4 construct: expressed in transfected cells; host or cells: BaF3 (murine pro-B), retroviral pMXs-IRES-Blasticidin
T4 sequence (P00533 with tags, fused parts or gaps DELINS30-297G): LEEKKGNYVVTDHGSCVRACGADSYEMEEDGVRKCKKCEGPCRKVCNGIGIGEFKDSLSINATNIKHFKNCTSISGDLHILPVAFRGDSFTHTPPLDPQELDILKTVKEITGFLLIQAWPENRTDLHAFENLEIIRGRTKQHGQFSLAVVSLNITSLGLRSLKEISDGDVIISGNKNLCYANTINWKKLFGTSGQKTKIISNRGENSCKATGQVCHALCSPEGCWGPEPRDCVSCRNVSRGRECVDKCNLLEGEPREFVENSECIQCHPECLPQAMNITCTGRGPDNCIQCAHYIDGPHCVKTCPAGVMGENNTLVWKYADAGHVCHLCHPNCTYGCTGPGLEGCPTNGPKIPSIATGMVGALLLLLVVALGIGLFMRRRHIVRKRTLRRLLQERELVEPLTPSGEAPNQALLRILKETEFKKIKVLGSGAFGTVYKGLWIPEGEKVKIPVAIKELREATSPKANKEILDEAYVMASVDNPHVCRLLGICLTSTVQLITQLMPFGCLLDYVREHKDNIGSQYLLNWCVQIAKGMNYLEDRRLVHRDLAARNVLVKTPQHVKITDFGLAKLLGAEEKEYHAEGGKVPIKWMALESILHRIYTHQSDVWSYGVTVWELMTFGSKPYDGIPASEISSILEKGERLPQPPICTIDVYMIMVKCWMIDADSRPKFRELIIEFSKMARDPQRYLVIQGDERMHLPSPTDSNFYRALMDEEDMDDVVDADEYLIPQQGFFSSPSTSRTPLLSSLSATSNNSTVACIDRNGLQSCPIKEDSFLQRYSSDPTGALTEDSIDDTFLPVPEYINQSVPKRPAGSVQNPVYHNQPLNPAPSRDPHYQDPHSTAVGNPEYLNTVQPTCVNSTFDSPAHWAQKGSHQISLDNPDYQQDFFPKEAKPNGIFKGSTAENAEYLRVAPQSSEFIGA
Outline: (§2)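 EC50s reflect growth of IL-3-independent BaF3 lines whose proliferation depends on the introduced human receptor variant. Lines were produced by retroviral infection and one week of 10 μg/ml Blasticidin selection.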

HER2 YVMA [6] = target: T3, HER2 YVMA; assay: BaF3 cell proliferation assay, HER2 YVMA (Table B); settings: potency code, 3 days, CellTiterGlo, read-out: HER2 YVMA (Activity for Inhibiting HER2)
EGFR V3 [7] = target: T4, EGFR V3; assay: Activity for inhibiting EGFR (Table A), EGFR V3 (EGFR-Viii); settings: read-out: EGFR V3, potency code (IC50)
EGFR WT [8] = target: T2, EGFR WT; assay: BaF3 cell proliferation assay, EGFR WT (Table A); settings: potency code, 3 days, CellTiterGlo, read-out: EGFR WT (Activity for Inhibiting EGFR)
Outline: as §2

T1 sequence (P04626 23-1255 S310F): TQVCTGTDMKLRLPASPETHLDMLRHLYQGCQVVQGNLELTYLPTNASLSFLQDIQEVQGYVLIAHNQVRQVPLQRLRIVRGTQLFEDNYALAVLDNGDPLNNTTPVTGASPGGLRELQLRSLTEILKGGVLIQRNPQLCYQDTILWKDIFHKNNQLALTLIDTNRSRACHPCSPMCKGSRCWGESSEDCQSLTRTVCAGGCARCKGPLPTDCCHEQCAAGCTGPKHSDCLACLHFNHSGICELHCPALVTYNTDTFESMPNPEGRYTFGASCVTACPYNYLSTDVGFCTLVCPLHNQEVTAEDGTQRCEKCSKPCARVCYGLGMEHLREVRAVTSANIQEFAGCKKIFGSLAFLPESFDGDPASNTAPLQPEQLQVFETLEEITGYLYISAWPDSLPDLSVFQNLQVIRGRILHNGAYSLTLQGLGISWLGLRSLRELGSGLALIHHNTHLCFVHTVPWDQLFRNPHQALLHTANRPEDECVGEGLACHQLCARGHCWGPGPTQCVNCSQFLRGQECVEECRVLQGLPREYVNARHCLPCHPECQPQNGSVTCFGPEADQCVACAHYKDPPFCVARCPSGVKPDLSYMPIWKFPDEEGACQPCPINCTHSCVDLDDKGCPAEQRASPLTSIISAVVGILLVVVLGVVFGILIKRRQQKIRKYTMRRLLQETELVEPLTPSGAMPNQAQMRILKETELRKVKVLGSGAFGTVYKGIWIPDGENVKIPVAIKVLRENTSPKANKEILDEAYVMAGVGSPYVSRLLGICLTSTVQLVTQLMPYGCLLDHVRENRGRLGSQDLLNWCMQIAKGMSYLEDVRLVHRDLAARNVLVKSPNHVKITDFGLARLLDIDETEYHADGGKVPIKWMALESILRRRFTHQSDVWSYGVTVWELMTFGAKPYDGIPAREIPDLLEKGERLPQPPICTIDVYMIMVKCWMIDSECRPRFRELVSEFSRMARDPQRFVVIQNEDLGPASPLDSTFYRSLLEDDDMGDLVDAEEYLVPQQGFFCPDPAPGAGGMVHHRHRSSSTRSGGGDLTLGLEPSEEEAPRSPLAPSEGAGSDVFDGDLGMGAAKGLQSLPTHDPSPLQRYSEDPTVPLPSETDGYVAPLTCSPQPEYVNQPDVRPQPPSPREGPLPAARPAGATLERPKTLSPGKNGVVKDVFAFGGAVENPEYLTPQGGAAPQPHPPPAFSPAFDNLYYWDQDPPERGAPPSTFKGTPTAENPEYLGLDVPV

Row | Structure (SMILES) | IC50 (HER2 S310F [1]) [nM] | IC50 (HER2 S310F [2]) [nM] | IC50 (EGFR WT [3]) [nM] | IC50 (HER2 YVMA [4]) [nM] | IC50 (EGFR V3 [5]) [nM] | IC50 (HER2 YVMA [6]) [nM] | IC50 (EGFR V3 [7]) [nM] | IC50 (EGFR WT [8]) [nM]
1 | C=CC(=O)Nc1cc2c(Nc3ccc(OCc4ccccn4)c(Cl)c3)ncnc2cc1OCCN1CC2(CCN2C)C1 [compound 115] | 30 to 50 | 30 to 50 | 200 to 300 | 50 to 100 | 30 to 50 | 50 to 100 | 30 to 50 | 200 to 300
2 | C=CC(=O)Nc1cc2c(Nc3ccc(OCc4ccccn4)c(Cl)c3)ncnc2cc1OCC1CCN1C (centres unmarked) [compound 116, N-(4-((3-chloro-4-(pyridin-2-ylmethoxy)phenyl)amino)-7-((1-methylazetidin-2-yl)methoxy)quinazolin-6-yl)acrylamide] | 30 to 50 | 30 to 50 | 500 to 1000 | 200 to 300 | 30 to 50 | 200 to 300 | 30 to 50 | 500 to 1000
3 | C=CC(=O)Nc1cc2c(Nc3ccc(Oc4ccccc4)c(C)c3)ncnc2cc1C#C[C@@H]1[C@H]2CN(C)C[C@@H]12 [compound 117, N-(7-(((1R,5S,6s)-3-methyl-3-azabicyclo[3.1.0]hexan-6-yl)ethynyl)-4-((3-methyl-4-phenoxyphenyl)amino)quinazolin-6-yl)acrylamide] | 50 to 100 | 50 to 100 | 500 to 1000 | 100 to 200 | 100 to 200 | 100 to 200 | 100 to 200 | 500 to 1000
4 | C=CC(=O)Nc1cc2c(Nc3ccc(OCc4ccccn4)c(Cl)c3)ncnc2cc1OCCN1CC2(CN(C)C2)C1 [compound 119, N-(4-((3-chloro-4-(pyridin-2-ylmethoxy)phenyl)amino)-7-(2-(6-methyl-2,6-diazaspiro[3.3]heptan-2-yl)ethoxy)quinazolin-6-yl)acrylamide] | 50 to 100 | 50 to 100 | 300 to 500 | 100 to 200 | 50 to 100 | 100 to 200 | 50 to 100 | 300 to 500
5 | C=CC(=O)Nc1cc2c(Nc3ccc(OCc4ccccn4)c(Cl)c3)ncnc2cc1OCCC1COCCN1C (centres unmarked) [compound 120, N-(4-((3-chloro-4-(pyridin-2-ylmethoxy)phenyl)amino)-7-(2-(4-methylmorpholin-3-yl)ethoxy)quinazolin-6-yl)acrylamide] | 10 to 20 | 10 to 20 | > 1000 | 50 to 100 | 30 to 50 | 50 to 100 | 30 to 50 | > 1000
6 | C=CC(=O)Nc1cc2c(Nc3ccc(CC(=O)c4ccccn4)c(Cl)c3)ncnc2cc1O[C@@H]1CCN(C)C1 [compound 121] | 30 to 50 | 30 to 50 | > 1000 | 300 to 500 | 100 to 200 | 300 to 500 | 100 to 200 | > 1000
7 | C=CC(=O)Nc1cc2c(Nc3ccc(OCc4ccccn4)c(Cl)c3)ncnc2cc1OCC12CCC(CC1)N2C [compound 122, N-(4-((3-chloro-4-(pyridin-2-ylmethoxy)phenyl)amino)-7-((7-methyl-7-azabicyclo[2.2.1]heptan-1-yl)methoxy)quinazolin-6-yl)acrylamide] | 100 to 200 | 100 to 200 | 500 to 1000 | 500 to 1000 | 50 to 100 | 500 to 1000 | 50 to 100 | 500 to 1000
8 | C=CC(=O)Nc1cc2c(Nc3ccc(OCc4ccccn4)c(Cl)c3)ncnc2cc1OCC1CN(C)C1 [compound 123, N-(4-((3-chloro-4-(pyridin-2-ylmethoxy)phenyl)amino)-7-((1-methylazetidin-3-yl)methoxy)quinazolin-6-yl) Acrylamide] | 30 to 50 | 30 to 50 | 200 to 300 | 100 to 200 | 30 to 50 | 100 to 200 | 30 to 50 | 200 to 300
9 | C=CC(=O)Nc1cc2c(Nc3ccc(OCc4ccccn4)c(Cl)c3)ncnc2cc1C#CC1CC2(C1)CN(C)C2 [compound 124, N-(4-((3-chloro-4-(pyridin-2-ylmethoxy)phenyl)amino)-7-((2-methyl-2-azaspiro[3.3]heptan-6-yl)ethynyl)quinazolin-6-yl)acrylamide] | 30 to 50 | 30 to 50 | 500 to 1000 | 100 to 200 | 30 to 50 | 100 to 200 | 30 to 50 | 500 to 1000
10 | C=CC(=O)Nc1cc2c(Nc3ccc(OCc4ccccn4)c(Cl)c3)ncnc2cc1OCCN1CCS(=O)(=O)CC1 [compound 125] | 100 to 200 | 100 to 200 | 500 to 1000 | > 1000 | 100 to 200 | > 1000 | 100 to 200 | 500 to 1000
11 | C=CC(=O)Nc1cc2c(Nc3ccc(OCc4ccccn4)c(Cl)c3)ncnc2cc1C#CC12CCN(CC1)CC2 [compound 126, N-(4-((3-chloro-4-(pyridin-2-ylmethoxy)phenyl)amino)-7-(quinuclidin-4-ylethynyl)quinazolin-6-yl)acrylamide] | 30 to 50 | 30 to 50 | 300 to 500 | 50 to 100 | 30 to 50 | 50 to 100 | 30 to 50 | 300 to 500
12 | C=CC(=O)Nc1cc2c(Nc3ccc(Oc4ccc(Cl)c(F)c4)cc3)ncnc2cc1OCCN1CCOCC1 [compound 127] | 300 to 500 | 300 to 500 | 500 to 1000 | > 1000 | 50 to 100 | > 1000 | 50 to 100 | 500 to 1000
13 | C=CC(=O)Nc1cc2c(Nc3ccc(OCc4cccc(C)n4)c(Cl)c3)ncnc2cc1OCCN1CCOCC1 [compound 128] | 100 to 200 | 100 to 200 | 500 to 1000 | 300 to 500 | 100 to 200 | 300 to 500 | 100 to 200 | 500 to 1000
14 | C=CC(=O)Nc1cc2c(Nc3ccc(OCc4cccc(C)n4)c(Cl)c3)ncnc2cc1OCCCN1CCOCC1 [compound 129] | 30 to 50 | 30 to 50 | 500 to 1000 | 100 to 200 | 100 to 200 | 100 to 200 | 100 to 200 | 500 to 1000
15 | C=CC(=O)Nc1cc2c(Nc3ccc(OCc4cccc(F)c4)c(Cl)c3)ncnc2cc1OCCN1CCN(C)CC1 [compound 130] | 30 to 50 | 30 to 50 | 200 to 300 | 300 to 500 | 100 to 200 | 300 to 500 | 100 to 200 | 200 to 300
16 | C=CC(=O)Nc1cc2c(Nc3cc(Cl)c(OCc4cccc(F)c4)cc3F)ncnc2cc1OCCCN1CC(OC)C1 [compound 131] | 50 to 100 | 50 to 100 | 200 to 300 | 300 to 500 | 100 to 200 | 300 to 500 | 200 to 300 | 200 to 300
17 | C=CC(=O)Nc1cc2c(Nc3ccc(OCc4cccc(C)n4)c(Cl)c3)ncnc2cc1OCCN1CC2CCC(C1)O2 [compound 132] | 300 to 500 | 300 to 500 | > 1000 | 500 to 1000 | 300 to 500 | 500 to 1000 | 300 to 500 | > 1000
18 | C=CC(=O)Nc1cc2c(Nc3cc(Cl)c(OCc4cccc(F)c4)cc3F)ncnc2cc1O[C@@H]1CCN(C)C1 [compound 133] | 50 to 100 | 50 to 100 | 200 to 300 | 500 to 1000 | 100 to 200 | 500 to 1000 | 100 to 200 | 200 to 300
19 | C=CC(=O)Nc1cc2c(Nc3cc(Cl)c(OCc4cccc(F)c4)cc3F)ncnc2cc1OCCN1CC(OC)C1 [compound 134] | 30 to 50 | 30 to 50 | 200 to 300 | 300 to 500 | 50 to 100 | 300 to 500 | 50 to 100 | 200 to 300
20 | C=CC(=O)Nc1cc2c(Nc3ccc(OCc4cccc(C)n4)c(Cl)c3)ncnc2cc1OCCN1CC(OC)C1 [compound 135] | 100 to 200 | 100 to 200 | 300 to 500 | 300 to 500 | 50 to 100 | 300 to 500 | 50 to 100 | 300 to 500
21 | CC#CC(=O)Nc1cc2c(Nc3cc(Cl)c(OCc4cccc(F)c4)cc3F)ncnc2cc1OCCCN1CC(OC)C1 [compound 136, N-(4-((5-chloro-2-fluoro-4-((3-fluorobenzyl)oxy)phenyl)amino)-7-(3-(3-methoxyazetidin-1-yl)propoxy)quinazolin-6-yl)but-2-ynamide] | 30 to 50 | 30 to 50 | 100 to 200 | 100 to 200 | 100 to 200 | 100 to 200 | 100 to 200 | 100 to 200
22 | C=CC(=O)Nc1cc2c(Nc3ccc(OCc4cccc(C)n4)c(Cl)c3)ncnc2cc1OCCN1CCN(C)CC1 [compound 137] | 50 to 100 | 50 to 100 | 200 to 300 | 300 to 500 | 50 to 100 | 300 to 500 | 50 to 100 | 200 to 300
